Reference: US20240207453A1, “13C METHACETIN GRANULE, AND PREPARATION METHOD THEREFOR AND USE THEREOF” (BEIJING RICHEN-FORCE SCIENCE & TECHNOLOGY CO., LTD, priority 2021, published 2024)

What was measured:
[1] = comparison of water solubility; assay type: physicochemical; conditions: against the requirements of clinical use
[2] = comparison of stability (appearance, impurities) during storage; assay type: physicochemical
Method: Experimental Groups 1 to 6: the 13C-methacetin granular formulations prepared in Examples 1 to 6 of the present disclosure
Control Group 1: a powdered formulation. The respective adjuvant materials and the raw drug were weighed at a prescribed ratio and mixed uniformly in a mixer for 3 hours, whereby a powdered formulation or a powder was prepared.
Control Group 2: another granular formulation.
13C-methacetin has a low solubility in water, has a slow dissolution rate, should be stirred for a long time when being dissolved in 100 ml of water in an amount of 50 mg, and thus is not convenient in oral administration. […] The powders are agglomerated during storage. The addition of the adjuvant materials helps to improve the stability of the product, and the degraded impurities are less than those of the raw drug powder. […] By comparison, the developed granular formulation has better stability and water solubility, is stable in quality, and has high value in use.

## CC(=O)Nc1ccc(O[13CH3])cc1 [13C-methacetin, N-acetyl-p-anisidine (methoxy-13C)]
[1]
  water solubility (in words): low
[2]
  Stability: Appearance (agglomeration): likely to agglomerate
